Laboratory results as given in patent publication US11697648B2, “Fused pyrimidine pyridinone compounds as JAK inhibitors” (THERAVANCE BIOPHARMA R&D IP, LLC, priority 2019, dated 2023).

Legend:
JAK1 = JAK1 (Homo sapiens (Human), UniProt P23458); assay: Biochemical JAK1 kinase assay (LanthaScreen)
Procedure, shortened: (§1)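 GST-JAK + GFP-STAT1 peptide, HEPES pH 7.5/MgCl2/EGTA/Brij-35 buffer; cpd preincubation 1 h RT; ATP start, 1 h RT; stop with 10 mM EDTA + 2 nM Tb-anti-pSTAT1; TR-FRET 520/495. 4-parameter IC50 → pKi (Cheng-Prusoff).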

JAK2 = JAK2 (Homo sapiens (Human), UniProt O60674); assay: Biochemical JAK2 kinase assay (LanthaScreen)
Chain of JAK2 (O60674 whole entry): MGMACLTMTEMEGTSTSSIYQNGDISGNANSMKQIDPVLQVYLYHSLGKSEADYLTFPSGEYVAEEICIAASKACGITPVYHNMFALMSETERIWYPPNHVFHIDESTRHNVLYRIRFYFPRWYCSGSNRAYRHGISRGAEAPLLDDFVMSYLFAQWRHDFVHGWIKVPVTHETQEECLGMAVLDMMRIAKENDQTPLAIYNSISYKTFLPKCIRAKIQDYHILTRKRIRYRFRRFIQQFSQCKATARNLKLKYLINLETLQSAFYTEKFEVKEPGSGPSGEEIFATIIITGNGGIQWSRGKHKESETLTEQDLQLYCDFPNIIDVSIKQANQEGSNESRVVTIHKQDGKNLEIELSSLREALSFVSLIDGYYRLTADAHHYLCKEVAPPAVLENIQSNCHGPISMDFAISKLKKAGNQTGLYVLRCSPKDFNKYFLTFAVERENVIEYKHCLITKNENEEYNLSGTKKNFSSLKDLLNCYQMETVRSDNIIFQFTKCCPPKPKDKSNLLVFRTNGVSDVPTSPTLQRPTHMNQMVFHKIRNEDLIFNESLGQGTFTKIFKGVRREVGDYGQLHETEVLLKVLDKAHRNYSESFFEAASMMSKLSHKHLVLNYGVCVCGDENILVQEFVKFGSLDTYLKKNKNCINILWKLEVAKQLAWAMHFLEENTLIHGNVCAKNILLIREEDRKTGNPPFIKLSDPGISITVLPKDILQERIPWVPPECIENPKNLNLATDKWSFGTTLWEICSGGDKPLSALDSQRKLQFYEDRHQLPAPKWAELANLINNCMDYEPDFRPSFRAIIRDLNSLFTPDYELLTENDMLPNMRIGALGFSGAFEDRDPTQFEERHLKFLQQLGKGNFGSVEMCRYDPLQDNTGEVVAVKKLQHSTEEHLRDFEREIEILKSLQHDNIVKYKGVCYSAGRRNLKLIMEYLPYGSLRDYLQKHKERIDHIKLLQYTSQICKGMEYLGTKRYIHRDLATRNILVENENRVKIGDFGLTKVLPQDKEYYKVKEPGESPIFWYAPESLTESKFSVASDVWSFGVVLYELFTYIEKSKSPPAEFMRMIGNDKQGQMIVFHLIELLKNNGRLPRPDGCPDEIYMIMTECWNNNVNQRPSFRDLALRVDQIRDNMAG
Procedure, shortened: as §1

JAK3 = JAK3 (Homo sapiens (Human), UniProt P52333); assay: Biochemical JAK3 kinase assay (LanthaScreen)
Chain of JAK3 (P52333 whole entry): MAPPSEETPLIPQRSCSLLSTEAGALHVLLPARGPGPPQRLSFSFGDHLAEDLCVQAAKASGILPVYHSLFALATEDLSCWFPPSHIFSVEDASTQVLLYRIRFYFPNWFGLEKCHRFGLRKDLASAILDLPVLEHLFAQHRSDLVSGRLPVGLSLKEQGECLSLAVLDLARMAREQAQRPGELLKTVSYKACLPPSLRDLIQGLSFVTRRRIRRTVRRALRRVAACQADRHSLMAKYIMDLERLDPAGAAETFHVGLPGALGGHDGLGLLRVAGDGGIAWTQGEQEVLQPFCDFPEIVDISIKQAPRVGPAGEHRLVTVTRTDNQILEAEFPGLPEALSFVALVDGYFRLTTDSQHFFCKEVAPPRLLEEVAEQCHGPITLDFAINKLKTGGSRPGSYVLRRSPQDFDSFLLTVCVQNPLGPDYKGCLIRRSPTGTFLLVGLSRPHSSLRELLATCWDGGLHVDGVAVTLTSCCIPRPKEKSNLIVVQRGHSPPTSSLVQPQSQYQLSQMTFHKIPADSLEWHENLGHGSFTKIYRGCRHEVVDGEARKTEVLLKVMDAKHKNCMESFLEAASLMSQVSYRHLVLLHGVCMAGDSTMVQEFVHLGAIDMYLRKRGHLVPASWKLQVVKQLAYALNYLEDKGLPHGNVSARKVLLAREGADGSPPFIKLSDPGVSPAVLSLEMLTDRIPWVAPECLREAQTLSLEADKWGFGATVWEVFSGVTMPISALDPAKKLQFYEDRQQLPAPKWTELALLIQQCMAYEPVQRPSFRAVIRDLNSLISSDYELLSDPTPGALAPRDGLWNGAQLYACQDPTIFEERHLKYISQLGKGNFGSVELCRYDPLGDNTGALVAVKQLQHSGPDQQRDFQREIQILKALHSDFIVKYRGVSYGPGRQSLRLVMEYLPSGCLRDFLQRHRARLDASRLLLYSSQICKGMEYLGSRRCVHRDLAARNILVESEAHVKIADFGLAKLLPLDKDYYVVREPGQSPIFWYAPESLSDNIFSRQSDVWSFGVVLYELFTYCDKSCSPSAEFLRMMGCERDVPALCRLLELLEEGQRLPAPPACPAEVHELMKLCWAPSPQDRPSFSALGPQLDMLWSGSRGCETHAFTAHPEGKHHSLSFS
Procedure, shortened: as §1

Tyk2 = Tyk2 (Homo sapiens (Human), UniProt P29597); assay: Biochemical Tyk2 kinase assay (LanthaScreen)
Chain of Tyk2 (P29597 whole entry): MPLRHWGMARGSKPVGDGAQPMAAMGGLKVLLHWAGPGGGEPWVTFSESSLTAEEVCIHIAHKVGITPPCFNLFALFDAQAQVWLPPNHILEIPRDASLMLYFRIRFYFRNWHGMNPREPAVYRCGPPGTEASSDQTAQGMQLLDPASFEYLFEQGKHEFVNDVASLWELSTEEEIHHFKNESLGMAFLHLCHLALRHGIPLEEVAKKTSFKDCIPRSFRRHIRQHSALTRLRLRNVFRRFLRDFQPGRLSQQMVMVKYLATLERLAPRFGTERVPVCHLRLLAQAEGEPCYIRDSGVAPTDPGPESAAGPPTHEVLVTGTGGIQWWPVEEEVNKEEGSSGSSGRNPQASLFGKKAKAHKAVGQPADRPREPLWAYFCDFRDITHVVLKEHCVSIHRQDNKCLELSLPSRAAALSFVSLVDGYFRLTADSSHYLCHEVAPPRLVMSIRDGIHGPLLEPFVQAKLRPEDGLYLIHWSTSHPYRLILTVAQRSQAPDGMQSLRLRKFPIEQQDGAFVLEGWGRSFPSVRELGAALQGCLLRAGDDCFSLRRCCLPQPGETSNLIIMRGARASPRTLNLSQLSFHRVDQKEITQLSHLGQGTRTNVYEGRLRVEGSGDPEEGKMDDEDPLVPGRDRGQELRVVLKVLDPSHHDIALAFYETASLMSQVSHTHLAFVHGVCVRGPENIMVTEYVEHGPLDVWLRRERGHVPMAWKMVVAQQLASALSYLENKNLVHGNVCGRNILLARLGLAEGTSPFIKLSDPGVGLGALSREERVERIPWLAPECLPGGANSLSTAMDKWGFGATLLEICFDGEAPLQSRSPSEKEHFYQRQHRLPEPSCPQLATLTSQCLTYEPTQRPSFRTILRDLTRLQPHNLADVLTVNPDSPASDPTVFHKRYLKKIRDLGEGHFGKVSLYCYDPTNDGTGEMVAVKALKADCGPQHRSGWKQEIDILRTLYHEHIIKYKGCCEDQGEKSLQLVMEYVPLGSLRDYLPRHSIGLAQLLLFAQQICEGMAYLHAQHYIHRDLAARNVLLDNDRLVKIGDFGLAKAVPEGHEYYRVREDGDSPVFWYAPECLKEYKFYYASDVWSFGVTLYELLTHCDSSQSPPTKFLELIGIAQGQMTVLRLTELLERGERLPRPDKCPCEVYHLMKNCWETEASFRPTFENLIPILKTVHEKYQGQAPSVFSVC
Procedure, shortened: as §1

[1] = system: IL-2 stimulated STAT5 phosphorylation in Tall-1 human T cell line (JAK3); assay: Cellular JAK3 potency assay: inhibition of IL-2 stimulated pSTAT5 in Tall-1 T cells; type: cell-based
Procedure, shortened: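 Tall-1 cells, 45,000 per well, preincubated 1 hour with compound at 37 °C, then stimulated 30 minutes with IL-2 at 300 ng/ml final. pSTAT5 (Tyr694/699) in lysates quantified by AlphaLISA SureFire Ultra. pIC50 derived from inhibition curves, given as mean with SD.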

[2] = selectivity JAK3 over JAK1, difference of pKi
[3] = IL-2 stimulated pSTAT5, Tall-1 T cells
[4] = selectivity, difference of pKi values
[5] = IL-2 stimulated pSTAT5 in Tall-1 T cells

Chain of JAK1 (P23458 whole entry): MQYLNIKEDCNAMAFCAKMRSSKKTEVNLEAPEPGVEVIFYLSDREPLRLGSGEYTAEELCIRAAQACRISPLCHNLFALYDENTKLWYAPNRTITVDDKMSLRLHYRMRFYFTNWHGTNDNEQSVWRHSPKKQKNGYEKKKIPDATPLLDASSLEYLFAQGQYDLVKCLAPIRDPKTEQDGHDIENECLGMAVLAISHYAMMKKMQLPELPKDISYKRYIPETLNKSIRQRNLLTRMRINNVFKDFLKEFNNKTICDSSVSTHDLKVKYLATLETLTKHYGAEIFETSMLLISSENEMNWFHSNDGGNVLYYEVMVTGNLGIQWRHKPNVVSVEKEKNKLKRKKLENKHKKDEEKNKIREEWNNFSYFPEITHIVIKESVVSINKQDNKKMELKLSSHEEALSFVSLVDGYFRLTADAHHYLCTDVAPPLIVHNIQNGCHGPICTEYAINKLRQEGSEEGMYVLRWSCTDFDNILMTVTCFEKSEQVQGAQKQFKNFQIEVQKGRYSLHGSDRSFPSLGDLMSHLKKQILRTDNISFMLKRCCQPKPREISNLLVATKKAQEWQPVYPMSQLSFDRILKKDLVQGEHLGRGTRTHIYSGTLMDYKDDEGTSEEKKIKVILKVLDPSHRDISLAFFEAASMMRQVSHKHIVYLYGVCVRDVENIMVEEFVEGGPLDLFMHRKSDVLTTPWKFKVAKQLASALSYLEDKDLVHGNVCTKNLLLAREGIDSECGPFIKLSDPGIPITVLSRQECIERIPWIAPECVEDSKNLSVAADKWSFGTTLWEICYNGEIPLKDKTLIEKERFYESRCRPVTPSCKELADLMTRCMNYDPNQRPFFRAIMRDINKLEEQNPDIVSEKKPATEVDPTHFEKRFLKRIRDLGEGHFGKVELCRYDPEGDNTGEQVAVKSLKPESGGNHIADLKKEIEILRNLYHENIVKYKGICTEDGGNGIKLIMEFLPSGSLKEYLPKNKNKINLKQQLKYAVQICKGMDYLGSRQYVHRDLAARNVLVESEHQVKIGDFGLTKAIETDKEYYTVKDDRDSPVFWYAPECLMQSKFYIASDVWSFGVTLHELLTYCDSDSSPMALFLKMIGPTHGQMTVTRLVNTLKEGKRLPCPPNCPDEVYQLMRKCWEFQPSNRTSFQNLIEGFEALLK

Structure (SMILES)	JAK 1 (pKi) (JAK1)	JAK 2 (pKi) (JAK2)	JAK 3 (pKi) (JAK3)	JAK3 (pKi)-JAK1 (pKi) (JAK3; [2])	Tyk 2 (pKi) (Tyk2)	Tall-1 (pIC50) [1, 3]	JAK3 (pKi)-JAK1 (pKi) (JAK3; [4])	Tall-1 (pIC50) [1, 5]
C=CC(=O)N1CC(CCn2c(=O)ccc3cnc(Nc4cccc(CN5CCN(C(=O)OC)CC5)c4)nc32)C1 [Example 111]	E (E represents a pKi value of 7 or below (Ki of 100 nM or above))	E (E represents a pKi value of 7 or below (Ki of 100 nM or above))	B (B represents pKi value between 9 and 10 (Ki between 1 nM and 0.1 nM))	A (A represents a value of 3 or above)	E (E represents a pKi value of 7 or below (Ki of 100 nM or above))	B (B represents a pC50 value between 6.7 (included) and 7.5 (IC50 between 200 nM and 32 nM))		
C=CC(=O)N1CCN(CCn2c(=O)ccc3cnc(Nc4cnn(C(C)(C)COC)c4)nc32)[C@@H](C)C1 [Example 233]	E (E represents a pKi value of 7 or below (Ki of 100 nM or above))	E (E represents a pKi value of 7 or below (Ki of 100 nM or above))	B (B represents pKi value between 9 and 10 (Ki between 1 nM and 0.1 nM))	A (A represents a value of 3 or above)	E (E represents a pKi value of 7 or below (Ki of 100 nM or above))	B (B represents a pC50 value between 6.7 (included) and 7.5 (IC50 between 200 nM and 32 nM))		
C=CC(=O)N1CC(CCn2c(=O)ccc3cnc(Nc4ccc(N5CCN(C(C)C)CC5)cc4)nc32)C1 [Example 120]	E (E represents a pKi value of 7 or below (Ki of 100 nM or above))	E (E represents a pKi value of 7 or below (Ki of 100 nM or above))	B (B represents pKi value between 9 and 10 (Ki between 1 nM and 0.1 nM))	A (A represents a value of 3 or above)	E (E represents a pKi value of 7 or below (Ki of 100 nM or above))	A (A represents a pIC50 value≥7.5 (IC50≤32 nM))		
C=CC(=O)N1CC(CCn2c(=O)ccc3cnc(Nc4ccc(N5CCN(C(=O)CC(C)C)CC5)cc4)nc32)C1 [Example 103]	E (E represents a pKi value of 7 or below (Ki of 100 nM or above))	E (E represents a pKi value of 7 or below (Ki of 100 nM or above))	A (A represents a pKi value≥10 (Ki≤0.1 nM))	A (A represents a value of 3 or above)	E (E represents a pKi value of 7 or below (Ki of 100 nM or above))	A (A represents a pIC50 value≥7.5 (IC50≤32 nM))		
C=CC(=O)N1CCN(CCn2c(=O)ccc3cnc(Nc4ccc(N5CCN(CC)CC5)cc4)nc32)CC1 [Example 204]	E (E represents a pKi value of 7 or below (Ki of 100 nM or above))	E (E represents a pKi value of 7 or below (Ki of 100 nM or above))	A (A represents a pKi value≥10 (Ki≤0.1 nM))	A (A represents a value of 3 or above)	E (E represents a pKi value of 7 or below (Ki of 100 nM or above))	A (A represents a pIC50 value≥7.5 (IC50≤32 nM))		
C=CC(=O)N1C[C@H](C)N(CCn2c(=O)ccc3cnc(Nc4cnn(C)c4)nc32)C[C@@H]1C [Example 121]	E (E represents a pKi value of 7 or below (Ki of 100 nM or above))	E (E represents a pKi value of 7 or below (Ki of 100 nM or above))	B (B represents pKi value between 9 and 10 (Ki between 1 nM and 0.1 nM))	B (B represents a value of 2.5 to 3)	E (E represents a pKi value of 7 or below (Ki of 100 nM or above))	C (C represents a pIC50 value between 6 and 6.7 (IC50 between 1 μM and 200 nM))		
C=CC(=O)N1CC(C(C)(C)Cn2c(=O)ccc3cnc(Nc4ccc(N5CCN(C(C)=O)CC5)cc4)nc32)C1 [Example 184]	E (E represents a pKi value of 7 or below (Ki of 100 nM or above))	E (E represents a pKi value of 7 or below (Ki of 100 nM or above))	A (A represents a pKi value≥10 (Ki≤0.1 nM))	A (A represents a value of 3 or above)	E (E represents a pKi value of 7 or below (Ki of 100 nM or above))	B (B represents a pC50 value between 6.7 (included) and 7.5 (IC50 between 200 nM and 32 nM))		
C=CC(=O)N1CC(CCn2c(=O)ccc3cnc(Nc4ccc(N5CCN(C)C(C)(C)C5)cc4)nc32)C1 [Example 240]	E (E represents a pKi value of 7 or below (Ki of 100 nM or above))	E (E represents a pKi value of 7 or below (Ki of 100 nM or above))	A (A represents a pKi value≥10 (Ki≤0.1 nM))		E (E represents a pKi value of 7 or below (Ki of 100 nM or above))		A (A represents a value of 3 or above)	A (A represents a pIC50 value≥7.5 (IC50≤32 nM))
C=CC(=O)N1CC(CCn2c(=O)ccc3cnc(Nc4ccc(N5CCN(S(=O)(=O)N(C)C)CC5)cc4)nc32)C1 [Example 97]	E (E represents a pKi value of 7 or below (Ki of 100 nM or above))	E (E represents a pKi value of 7 or below (Ki of 100 nM or above))	B (B represents pKi value between 9 and 10 (Ki between 1 nM and 0.1 nM))	A (A represents a value of 3 or above)	E (E represents a pKi value of 7 or below (Ki of 100 nM or above))	A (A represents a pIC50 value≥7.5 (IC50≤32 nM))		
C=CC(=O)N1CC(CCn2c(=O)ccc3cnc(Nc4ccc(N5CCN(C)CC5)c(Cl)c4)nc32)C1 [Example 17]	E (E represents a pKi value of 7 or below (Ki of 100 nM or above))	E (E represents a pKi value of 7 or below (Ki of 100 nM or above))	B (B represents pKi value between 9 and 10 (Ki between 1 nM and 0.1 nM))	A (A represents a value of 3 or above)	E (E represents a pKi value of 7 or below (Ki of 100 nM or above))	B (B represents a pC50 value between 6.7 (included) and 7.5 (IC50 between 200 nM and 32 nM))		
C=CC(=O)N1CC(CCn2c(=O)ccc3cnc(Nc4cnn(CC)c4)nc32)C1 [Example 241]	E (E represents a pKi value of 7 or below (Ki of 100 nM or above))	E (E represents a pKi value of 7 or below (Ki of 100 nM or above))	B (B represents pKi value between 9 and 10 (Ki between 1 nM and 0.1 nM))		E (E represents a pKi value of 7 or below (Ki of 100 nM or above))		A (A represents a value of 3 or above)	B (B represents a pC50 value between 6.7 (included) and 7.5 (IC50 between 200 nM and 32 nM))
C=CC(=O)N1CCN(CCn2c(=O)ccc3cnc(Nc4cnn(CCOC(C)C)c4)nc32)[C@@H](CC)C1 [Example 220]	E (E represents a pKi value of 7 or below (Ki of 100 nM or above))	E (E represents a pKi value of 7 or below (Ki of 100 nM or above))	B (B represents pKi value between 9 and 10 (Ki between 1 nM and 0.1 nM))	A (A represents a value of 3 or above)	E (E represents a pKi value of 7 or below (Ki of 100 nM or above))	B (B represents a pC50 value between 6.7 (included) and 7.5 (IC50 between 200 nM and 32 nM))		
C=CC(=O)N1CC(CCn2c(=O)ccc3cnc(Nc4cccc(N5CCN(S(=O)(=O)CC#N)CC5)c4)nc32)C1 [Example 128]	E (E represents a pKi value of 7 or below (Ki of 100 nM or above))	E (E represents a pKi value of 7 or below (Ki of 100 nM or above))	A (A represents a pKi value≥10 (Ki≤0.1 nM))	A (A represents a value of 3 or above)	E (E represents a pKi value of 7 or below (Ki of 100 nM or above))	B (B represents a pC50 value between 6.7 (included) and 7.5 (IC50 between 200 nM and 32 nM))		
C=CC(=O)N1CC(CCn2c(=O)ccc3cnc(Nc4ccc(OCCO)cc4)nc32)C1 [Example 223]	E (E represents a pKi value of 7 or below (Ki of 100 nM or above))	E (E represents a pKi value of 7 or below (Ki of 100 nM or above))	A (A represents a pKi value≥10 (Ki≤0.1 nM))	A (A represents a value of 3 or above)	E (E represents a pKi value of 7 or below (Ki of 100 nM or above))	B (B represents a pC50 value between 6.7 (included) and 7.5 (IC50 between 200 nM and 32 nM))		
C=CC(=O)N1CCN(CCn2c(=O)ccc3cnc(Nc4ccc(N5CCN(C(=O)C(C)C)CC5)cc4)nc32)CC1 [Example 213]	E (E represents a pKi value of 7 or below (Ki of 100 nM or above))	E (E represents a pKi value of 7 or below (Ki of 100 nM or above))	A (A represents a pKi value≥10 (Ki≤0.1 nM))	A (A represents a value of 3 or above)	E (E represents a pKi value of 7 or below (Ki of 100 nM or above))	B (B represents a pC50 value between 6.7 (included) and 7.5 (IC50 between 200 nM and 32 nM))		
